The target in this test is T1, human Glx-I enzyme (Homo sapiens, UniProt Q04760).
T1 sequence (Q04760 2-184 limits assumed): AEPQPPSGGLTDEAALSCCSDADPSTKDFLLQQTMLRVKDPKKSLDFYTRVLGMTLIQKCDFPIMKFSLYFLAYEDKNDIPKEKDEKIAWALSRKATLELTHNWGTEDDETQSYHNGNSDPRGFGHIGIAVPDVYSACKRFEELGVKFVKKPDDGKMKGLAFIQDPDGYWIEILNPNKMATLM
Nature of the test: Glx-I inhibitory activity in vitro. It is filed as biochemical. Conditions: for inhibition at 25 µM: read-out: % Inhibition at 25 μM.

As a reminder, the IC50 is the midpoint of a concentration-inhibition curve. A low value points to higher potency. As usually defined, the inhibition is the percentage by which the read-out fell short of the control.

Consider `Nc1ccc(/N=N/c2ccc(S(N)(=O)=O)cc2)c2cc(O)ccc12` [Compound 13, (E)-4-((4-amino-7-hydroxynaphthalen-1-yl)diazenyl)benzenesulfonamide], for which half-maximal inhibition (IC50) was put at 39.1 ± 5.31 µM and the inhibition at 25 µM was 46.2%.
The corresponding values for `NS(=O)(=O)c1ccc(/N=N/c2ccc(O)c(C(=O)O)c2)cc1` [Compound 26, (E)-2-hydroxy-5-((4-sulfamoylphenyl)diazenyl)benzoic acid] are 0.39 ± 0.03 µM and 97.4%.

For the origin of these results see article PMC8976160 (Drug Design, Development and Therapy, 2022).
